Assay results taken from patent US4406902A, “Dipeptidase inhibitors” (Merck & Co., Inc., priority 1981, dated 1983).

What was measured:
[1] = target: T1, renal dipeptidase (E.C.3.4.13.11) (Sus scrofa, UniProt P22412); assay: in vitro screen: inhibition of hydrolysis of glycyldehydrophenylalanine (GDP) by solubilized dipeptidase from hog kidneys; format: biochemical; settings: GDP 0.05 mM; pH 7.1; 37° C.; hog kidney dipeptidase; read-out: inhibitor binding constant, Ki (ki)
T1 construct: solubilized preparation of dipeptidase isolated from hog kidneys; from tissue; host or cells: hog kidney (solubilized, lyophilized enzyme preparation)
T1 sequence (P22412 17-409): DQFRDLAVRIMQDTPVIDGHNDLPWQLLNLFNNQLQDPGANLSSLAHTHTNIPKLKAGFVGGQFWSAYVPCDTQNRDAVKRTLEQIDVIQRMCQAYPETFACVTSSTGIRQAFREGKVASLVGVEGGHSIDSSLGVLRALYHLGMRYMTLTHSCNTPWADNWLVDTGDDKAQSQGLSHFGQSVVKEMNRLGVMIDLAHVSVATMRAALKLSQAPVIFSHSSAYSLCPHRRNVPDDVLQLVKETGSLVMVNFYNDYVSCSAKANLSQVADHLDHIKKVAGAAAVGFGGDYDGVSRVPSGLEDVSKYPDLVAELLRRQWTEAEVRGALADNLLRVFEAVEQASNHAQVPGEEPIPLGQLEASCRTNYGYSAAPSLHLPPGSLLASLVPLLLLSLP
Protocol: This measured the ability of compounds to inhibit hydrolysis of glycyldehydrophenylalanine (GDP) by a solubilized preparation of dipeptidase isolated from hog kidneys. The procedure is as follows: to a 1 ml. system containing 50 mM "MOPS" (3-(N-morpholino)propanesulfonic acid) buffer, pH 7.1, is added 5 μg of lyophilized enzyme, and the test compound at a final concentration of 0.1 mM. After a five minute incubation at 37° C., GDP is added to a final concentration of 0.05 mM. […] Inhibition of the enzyme is gauged by comparison to a standard run containing no inhibitor and is expressed as the inhibitor binding constant, Ki.

renal dipeptidase = target: T2, renal dipeptidase (Sus scrofa, UniProt P22412); assay: hydrolysis of GDP and thienamycin as substrates by renal dipeptidase; format: biochemical, hog; settings: GDP compared with thienamycin
T2 construct: GPI-anchored homodimer
T2 sequence (P22412 17-384): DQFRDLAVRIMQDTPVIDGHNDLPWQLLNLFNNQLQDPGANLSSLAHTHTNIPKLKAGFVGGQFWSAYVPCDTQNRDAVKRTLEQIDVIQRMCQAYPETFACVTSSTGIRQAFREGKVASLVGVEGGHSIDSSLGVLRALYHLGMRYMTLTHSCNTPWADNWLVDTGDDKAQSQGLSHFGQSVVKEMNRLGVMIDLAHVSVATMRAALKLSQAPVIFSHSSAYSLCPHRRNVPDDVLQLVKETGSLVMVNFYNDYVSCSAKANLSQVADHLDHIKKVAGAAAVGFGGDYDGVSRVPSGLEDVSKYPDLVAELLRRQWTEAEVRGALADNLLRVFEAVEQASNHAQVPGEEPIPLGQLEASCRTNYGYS

[2] = disposition studies with thienamycin, its natural analogs and semi-synthetic derivatives (urinary recovery, plasma half-life); format: in vivo; settings: mouse, rat, dog, chimpanzee, Rhesus monkey
Protocol: Chem., 205 65 (1932); see also Greenstein, J. P., Advances in Enzymology, Vol. VIII, Wiley-Interscience, (1948), New York, and Campbell, B. J.; Lin, Y-C., Davis, R. V. and Ballew, E., "The Purification and Properties of Particulate Renal Dipeptidase", Biochim. Biophys. Acta., 118, 371 (1966).
Urinary recovery of thienamycin was measured in all cases with the use of a cylinder or disc diffusion assay, conducted in a manner described in U.S. Pat. No. 3,950,357. This bioassay, with Staphylococcus aureus ATCC 6538 as the test organism, has a useful response range from 0.04 μg/ml to 3.0 μg/ml.

SMILES | Ki [1] [nM] | further results
CC1(C)CC1C(=O)N/C(=C\CCCCSc1ccc(C(=O)O)cn1)C(=O)O (racemic) [Example 4, Racemic Z-7-(5-carboxy-2-pyridylthio)-2-(2,2-dimethylcyclopropanecarboxamido)-2-heptenoic acid] | 250 | 
CC1(C)CC1C(=O)N/C(=C\CCCCSc1ncccc1C(=O)O)C(=O)O (racemic) [Example 3, Racemic Z-7-(3-carboxy-2-pyridylthio)-2-(2,2-dimethylcyclopropanecarboxamido)-2-heptenoic acid] | 40 | 
CC1(C)CC1C(=O)N/C(=C\CCCCSc1ncccc1O)C(=O)O (single isomer, unassigned; (+)) [Example 2, (+)-Z-2-(2,2-Dimethylcyclopropanecarboxamido)-7-(3-hydroxy-2-pyridylthio)-2-heptenoic acid] | 20 | 
NCC(=O)NC(=Cc1ccccc1)C(=O)O [GDP, glycyldehydrophenylalanine] |  | maximal velocity of hydrolysis by renal dipeptidase (renal dipeptidase): much higher maximal velocity of hydrolysis
C[C@@H](O)[C@H]1C(=O)N2C(C(=O)O)=C(SCCN)C[C@H]12 [thienamycin] |  | plasma half-life [2]: short plasma half-lives; urinary recovery [2]: low urinary recovery
